Test results reported in paper PMC4139204, “Insight into the Architecture of the NuRD Complex” (The Journal of Biological Chemistry, 2014).
Entries after “also recorded” stand apart in the source; their conditions may differ. Blank lines part the entries; values can stand above or below the molecule they belong to.

How the values were obtained:
[1] = target: T1, RbAp48 (Homo sapiens, UniProt Q09028); experiment: GST pulldown of in vitro translated 35S-RbAp48 by GST-MTA1 fragments; type: binding; conditions: GST-MTA1 fusion on glutathione-Sepharose beads with in vitro translated 35S-labeled RbAp48, 2 h, 4 °C; SDS-PAGE and autoradiography
T1 construct: made in house; host or cells: insect cells
Source text: FLAG-tagged human RbAp48 (Uniprot: Q09028) was constructed by PCR and cloned into pcDNA3. MTA1 constructs (residues 1–250, 230–550, and 530–715) were generated by PCR amplification of the human gene (Uniprot: Q13330) and cloned into pcDNA3. MTA1 constructs (residues 530–635, 625–715, 643–695, and 656–686) were created by PCR amplification from codon-optimized sequences for bacterial expression (GenScript) and cloned into pGEX-6P with an N-terminal GST tag.
pcDNA3 constructs were expressed in vitro in the presence of [^35S]methionine. GST-MTA1 constructs were expressed in the BL21 strain of Escherichia coli and induced with 0.4 mM isopropyl 1-thio-β-D-galactopyranoside. The culture was incubated with shaking at 25 °C overnight, and the protein was subsequently purified by glutathione affinity chromatography. GST-H4-(1–48) was expressed and purified by glutathione affinity chromatography as described previously ([16]). Recombinant RbAp48 was expressed and purified from insect cells as described previously ([17]).
GST pulldown assays were performed by incubating equal amounts of GST or GST-MTA1 fusion proteins immobilized on glutathione-Sepharose beads (Amersham Biosciences) with in vitro translated ^35S-labeled RbAp48. The mixtures were incubated for 2 h at 4 °C and washed 5 times with binding buffer. Complexes were resolved by SDS-PAGE and visualized by autoradiography.

[2] = target: T1, RbAp48; experiment: Isothermal titration calorimetry (ITC) of MTA1 peptides binding to RbAp48; conditions: MicroCal iTC200, 25 °C, 20 mM Tris, pH 7.5, 150 mM NaCl, MTA1 peptide (250 μM) titrated into RbAp48 (25 μM, 200 μl), 20 injections of 2 μl, single-site 1:1 fit, representative measurement, standard error from single curve fit, each titration in duplicate, read-out: dissociation constant (KD)
Experimental: pcDNA3 constructs were expressed in vitro in the presence of [^35S]methionine. […] GST-H4-(1–48) was expressed and purified by glutathione affinity chromatography as described previously ([16]). Recombinant RbAp48 was expressed and purified from insect cells as described previously ([17]).
ITC measurements were carried out at 25 °C using a MicroCal iTC200 titration calorimeter. […] The reference power was set to 2 μcal/s, and the cell was stirred continuously at 1000 rpm. The evolved heats were integrated and normalized for protein concentration.

[3] = system: MTA1-RbAp48 complex; experiment: Competition pulldown: FOG1-(1–15) peptide added to MTA1-FLAG-RbAp48 complex; type: binding, human; conditions: FLAG-RbAp48 on anti-FLAG beads; for effect of FOG1 peptide on MTA1-RbAp48 interaction: increasing amounts of FOG1-(1–15) peptide
Experimental: RbAp48 and MTA1 constructs were in vitro translated in the presence of ^35S-labeled methionine using the TNT Quick Coupled Transcription/Translation kit (Promega) according to the manufacturer's instructions. In vitro translated ^35S-labeled FLAG-RbAp48 (20 μl) was immobilized onto agarose beads conjugated to anti-FLAG (M2) antibodies (Sigma) in binding buffer (50 mM Tris, pH 7.5, 300 mM NaCl, 0.5% Triton X-100, complete protease inhibitor mixture tablet (Roche Applied Science), and 1 mM DTT). The mixture was incubated with in vitro translated ^35S-labeled-MTA1 fragments (40 μl) at 4 °C for 2 h. The beads were then washed five times with binding buffer. Anti-FLAG beads alone were used as a negative control. Complexes were resolved by SDS-PAGE and visualized by autoradiography.
(§1) The structural data provide clear evidence that histone H4 and MTA1 bind mutually exclusively to RbAp48. […] Competition-binding experiments were performed to assess whether full-length MTA1 might inhibit the interaction of RbAp48 with H3 or FOG1 peptides and to confirm that H4 and MTA1 bind mutually exclusively to RbAp48. GST-H4-(1–48) was expressed in bacteria, immobilized onto glutathione beads, and used to pull down RbAp48 in the absence and presence of full-length MTA1 (Fig. 7A). In a complementary experiment (Fig. 7B), in vitro translated FLAG-RbAp48 was immobilized on anti-FLAG beads and used to pull down MTA1 in the absence and presence of histone H4-(1–48).
(§2) FIGURE 7. […] A, pulldown showing the binding of in vitro translated ^35S-labeled RbAp48 to GST-histone H4-(1–48) (immobilized on glutathione beads) in the absence and presence of in vitro translated MTA1. B, pulldown showing the binding of in vitro translated ^35S-labeled MTA1 to FLAG-RbAp48 (immobilized on anti-FLAG beads) in the absence and presence of histone H4-(1–48). C, pulldown assays showing the effect of adding increasing amounts of FOG1-(1–15) peptide to a complex formed between in vitro translated ^35S-labeled FLAG-RbAp48 (immobilized on anti-FLAG beads) and in vitro translated ^35S-labeled full-length MTA1 or MTA1-(530–715). […]

[4] = system: RbAp46/48; conditions: GST pulldown; ref [47]; cited from earlier work
Source text: Previous studies using GST pulldown assays have mapped the domains that mediate the interaction between MTA1/2 and RbAp46/48. […] Our crystallographic and biochemical data reveal that a short motif near the C-terminal end of MTA1 is able to bind ind ...

[5] = system: RbAp46 mutant (E356Q, D357N, E359Q, D360N, L30Y); conditions: D360N and L30Y; cited from earlier work
[6] = system: MTA1-RbAp48 complex; experiment: Competition pulldown: FLAG-RbAp48 pulls down MTA1 in absence and presence of histone H4-(1–48); type: binding, human; conditions: FLAG-RbAp48 on anti-FLAG beads, in vitro translated 35S-labeled MTA1, absence and presence of histone H4-(1–48)
Experimental: as §1, §2

[7] = target: RbAp46; conditions: for RbAp46; ref [16]; cited from earlier work

T1 sequence (Q09028 whole entry, the tested form may be a part): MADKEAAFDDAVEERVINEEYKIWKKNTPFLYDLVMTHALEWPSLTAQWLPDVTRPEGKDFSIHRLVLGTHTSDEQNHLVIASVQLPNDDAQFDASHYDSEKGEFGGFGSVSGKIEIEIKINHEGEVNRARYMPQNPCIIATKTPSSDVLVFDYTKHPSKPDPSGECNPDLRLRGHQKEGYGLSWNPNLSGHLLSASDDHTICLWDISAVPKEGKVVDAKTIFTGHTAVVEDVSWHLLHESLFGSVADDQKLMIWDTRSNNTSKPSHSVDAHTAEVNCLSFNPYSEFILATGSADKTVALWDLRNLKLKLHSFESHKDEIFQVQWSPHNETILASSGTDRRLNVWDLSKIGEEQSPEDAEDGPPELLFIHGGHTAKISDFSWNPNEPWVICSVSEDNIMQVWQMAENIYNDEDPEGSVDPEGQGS

Molecule: CC[C@H](C)[C@H](NC(=O)[C@H](CCCCN)NC(=O)[C@H](CCCNC(=N)N)NC(=O)[C@@H](NC(=O)[C@H](CCC(=O)O)NC(=O)[C@H](CCC(=O)O)NC(=O)[C@@H](NC(=O)[C@H](C)NC(=O)[C@H](CCSC)NC(=O)[C@H](Cc1ccc(O)cc1)NC(=O)[C@H](Cc1ccccc1)NC(=O)[C@@H](NC(=O)[C@H](CC(=O)O)NC(C)=O)C(C)C)[C@@H](C)O)[C@@H](C)O)C(=O)N[C@@H](CCCNC(=N)N)C(=O)N[C@@H](CCCCN)C(=O)N[C@@H](CC(C)C)C(=O)N[C@@H](CC(C)C)C(=O)N[C@@H](CO)C(=O)N[C@@H](CO)C(=O)N[C@@H](CO)C(=O)N[C@@H](CCC(=O)O)C(=O)N[C@H](C(=O)N[C@@H](CCCCN)C(=O)N[C@@H](CCCNC(=N)N)C(=O)N[C@@H](C)C(=O)N[C@@H](C)C(=O)N[C@@H](CCCNC(=N)N)C(=O)N[C@@H](CCCNC(=N)N)C(=O)N1CCC[C@H]1C(=O)N[C@@H](Cc1ccc(O)cc1)C(=O)N[C@@H](CCCCN)C(N)=O)[C@@H](C)O [MTA1-(656–686)]
binding to RbAp48 in GST pulldown [1]: sufficient to bind RbAp48; also recorded: shortest fragment of MTA1 capable of pulling down in vitro translated RbAp48

Kd [2]: 0.05 ± 0.007 µM
Molecule: Ac-KLLSSSETKRAARRPYKPIALRQSQA-NH2 [MTA1-(670–695)]

competition for binding to RbAp48 (Fig. 7 title) ([3]; Fig. 7, full-length MTA1 or MTA1-(530–715)): do not compete for binding to RbAp48
Molecule: FOG1-(1–15): peptide (residues 1–15) derived from the co-regulator FOG1
effect of FOG1 peptide on MTA1-RbAp48 interaction ([3]; C-terminal MTA1 fragment (residues 530–715)): The same result was observed | effect of FOG1 peptide on MTA1-RbAp48 interaction ([3]; full-length MTA1): unable to interfere with the MTA1-RbAp48 interaction

Molecule: GATA-type zinc finger domain of MTA1 (residues 392–448): predicted GATA-type zinc finger domain of MTA1 (ACESCYTTQSYQWYSWGPPNMQCRLCASCWTYWKKYGGLKMPTRLDGERPGPNRSNM; GATA-type zinc finger; UniProt Q13330 392-448, looked up, fragment)
recognition of RbAp46/48 [4]: sufficient to recognize RbAp46/48

Molecule: GST-tagged H4 (residues 1–48): GST-H4-(1–48) expressed in bacteria and purified by glutathione affinity chromatography
effect of RbAp46 mutations on interaction with H4 [5]: abrogate its interaction

Molecule: H4-(1–48): histone H4 residues 1–48
competition of histone H4 with MTA1 for RbAp48 [6]: compete for the same binding surface on RbAp48 | Kd [7]: 1 µM
